Assay results published in article PMC11109155, “Cell-free biosynthesis and engineering of ribosomally synthesized lanthipeptides” (Nature Communications, 2024).

Tests used:
[1] = test system: Staphylococcus aureus RN4220; experiment: Agar diffusion assay (diameter of zone of inhibition); assay type: cell-based; settings: for DZI, diameter of zone of inhibition: LB agar, 6 mm paper disks, 37 °C 16 h, peptides 1 mM (SalB & B-1: cell-free synthesized, purified mixture; SalB and SalB-1: produced in vivo, purified), Kan 50 μg/mL positive control, representative of n = 3; for Antimicrobial activity against Staphylococcus aureus RN4220 (in words): agar diffusion assay, in vivo and cell-free produced peptides, 1 mM
Excerpt: Fig. 2 In vitro expression, modification, and maturation of salivaricin B in UniBioCat. a The gene cluster (top) and catalytic steps (bottom) of salivaricin B biosynthesis. Dha, dehydroalanine; Dhb, dehydrobutyrine; Abu, α-aminobutyric acid. b Western-blot analysis of the cell-free expressed precursor peptide (left: SboA, 7.8 kDa) and modification enzymes [right: SboM (113 kDa) and SboT (83 kDa) are co-expressed]. Peptides/enzymes are labeled with the anti-His antibody. M, protein marker; T, total protein; S, soluble protein. Results were reproduced three times independently; representative data are shown. c MALDI-TOF-MS analysis of the precursor peptide (left: 6x His-tagged SboA, [M + H]^+ m/z = 7355) and modified precursor peptides (right: dehydrated 6x His-tagged SboA, [M-H2O + H]^+ m/z = 7337, [M-2H2O + H]^+ m/z = 7319, and [M−4H2O + H]^+ m/z = 7283). d MALDI-TOF-MS (left), LC-MS (middle), and MS/MS (right) analysis of matured salivaricin B. e MALDI-TOF-MS (left), LC-MS (middle), and MS/MS (right) analysis of the analog salivaricin B−1 with one additional amino acid alanine at the N-terminus. f Antimicrobial activity assay of salivaricin B (SalB) and salivaricin B-1 (SalB-1). “SalB & B-1” was cell-free synthesized and purified for the activity assay (note that the sample used was a mixture of SalB and B-1 with a concentration of 1 mM for the test). For in vivo produced SalB and SalB-1, 1 mM of each purified SalB and SalB-1 was used for the activity assay. NC, negative control; Kan, kanamycin (50 μg/mL) as a positive control; DZI, diameter of zone of inhibition (in mm). Data shown representative of three independent experiments (n = 3). Source data are provided as a Source Data file. TEXT PRINTED IN THE PICTURE: (f) Kan: DZI: 22 | (f) SalB & B-1 (UniBioCat): DZI: 7.5 | (f) SalB (in vivo): DZI: 7.5 | (f) SalB-1 (in vivo): DZI: 9.5
Two approaches were used for testing antimicrobial activity, including solid agar plate diffusion and liquid medium cultivation. In the diffusion assay, the overnight cultivated indicator strain S. aureus RN4220 was mixed with the melted LB agar medium (a starting OD600 of 0.05). The mixture was poured onto the plate and allowed to solidify at room temperature for 30 min. Then, sterile paper disks (diameter 6 mm) were placed on the surface of the agar plate and 1 mM of each peptide was added to the paper disk. The plates were incubated at 37 °C for 16 h, and the diameter of the zone of inhibition (DZI, in mm) was measured for comparison. In the second approach, the assay was performed in 96-well plates, and cell-free synthesized mature peptides were directly used without purification. For the samples of salivaricin B variants, 80 μL of each sample (diluted if necessary) was mixed with 120 μL of LB medium, containing each variant at a roughly final concentration of 6–7 μM and the indicator strain S. aureus RN4220 (a starting OD600 of 0.02). For the samples of uncharacterized (Lan 1 - Lan 10) and three known (lacticin 481, ruminococcin A, and nukacin ISK-1) lanthipeptides, 80 μL of the cell-free reaction mixture was added directly to the liquid cultivation without quantification. The 96-well plates were incubated at 37 °C and 150 rpm for 12 h. During the cultivation, OD600 values were measured every 2 h and ΔOD600 was calculated to compare the antimicrobial activity of tested samples. In all assays, kanamycin was used as a positive for comparison.

Bacillus subtilis = experiment: MIC (broth microdilution) and IC50 determination; assay type: cell-based; settings: LB, 37 °C, 130 rpm
Method: (§1) MIC values were determined by using a broth microdilution method. Overnight cultures of each indicator strain were diluted to 5 × 10^5 CFU mL^−1 using fresh LB medium and distributed into 96-well plates. Then, the cells were treated with twofold serial dilutions of the purified peptides (i.e., salivaricin B and variants). The total volume of each cultivation was 200 μL per well, consisting of 175 μL bacteria cells and 25 μL diluted peptides. The final concentrations of each peptide were set at 0.12, 0.25, 0.5, 1, 2, 4, 8, and 16 μM. The positive growth control wells only contained bacterial cells without addition of peptides. The plates were incubated with 130 rpm at 37 °C for B. subtilis and M. luteus and 30 °C for L. lactic. After incubation, the lowest peptide concentration, which inhibited 90% of the bacterial growth, was recorded as the MIC. The growth curves were used to determine IC50 values with GraphPad Prism (version 10.2.1, GraphPad Software).
(§2) Supplementary Table 6 Minimal inhibitory concentrations (MIC) and IC50 of salivaricin B and variants.
(§3) Bacillus subtilis Micrococcus luteus Lactococcus lactis
(§4) Peptides MIC IC50 MIC IC50 MIC IC50
(§5) (μM) (μM) (μM) (μM) (μM) (μM)
(§6) Source data are provided as a Source Data file.

Lactococcus lactis = experiment: MIC (broth microdilution) and IC50 determination; assay type: cell-based; settings: LB, 30 °C, 130 rpm
Method: as §1, §2, §3, §4, §5, §6

Micrococcus luteus = experiment: MIC (broth microdilution) and IC50 determination; assay type: cell-based; settings: LB, 37 °C, 130 rpm
Method: as §1, §2, §3, §4, §5, §6

S. aureus RN4220 [2] = experiment: MIC and IC50 assay with the indicator strain S. aureus RN4220; assay type: cell-based, Staphylococcus aureus; settings: purified peptides produced in vivo
Method: We next sought to test the antimicrobial activity of the mutated salivaricin B variants against the indicator strain S. aureus RN4220. To compare their activity, we first determined the concentrations of all peptide variants synthesized in UniBioCat reactions (Fig. 3c and Supplementary Table 5) and added an equal amount of each variant to the cell culture in 96-well plates. During the cultivation, OD600 values were measured every 2 h for a total of 12 h. […] Based on the single-site mutagenesis and activity assay, we performed a second-round mutation with two-site mutagenesis at both Q6 and L20 using eight selected variants (the combination leads to 15 two-site mutated variants). All these new variants could be synthesized and detected by MALDI-TOF-MS (see Fig. 3b for representative analyses). […] To further verify their activity and compare to standard in vivo approaches, six variants including single- and two-site mutation were selected to be produced by in vivo expression/modification and in vitro digestion for maturation. […] Additionally, we evaluated the MIC and IC50 of four strong variants (see Supplementary Fig. 12 for SalB_Q6H, SalB_L20M, SalB_L20I-Q6H, and SalB_L20M-Q6H) against three other indicator strains, including Bacillus subtilis, Micrococcus luteus, and Lactococcus lactis.
MIC values were determined by using a broth microdilution method. […]

[3] = read-out: IC50 of salivaricin B, previous report; cited from earlier work
Method: We next sought to test the antimicrobial activity of the mutated salivaricin B variants against the indicator strain S. aureus RN4220. To compare their activity, we first determined the concentrations of all peptide variants synthesized in UniBioCat reactions (Fig. 3c and Supplementary Table 5) and added an equal amount of each variant to the cell culture in 96-well plates. During the cultivation, OD600 values were measured every 2 h for a total of 12 h. […] Based on the ...

S. aureus RN4220 [4] = experiment: Liquid medium cultivation in 96-well plates, growth inhibition as ΔOD600; assay type: cell-based, Staphylococcus aureus; settings: peptides produced in vivo and purified, Supplementary Fig. 12 (50 μM, liquid) and Fig. 2f (1 mM, agar diffusion)
Excerpt: Fig. 3 Generation of salivaricin B mutants and their antimicrobial activity. a Representative MALDI-TOF-MS analyses of single-site mutagenesis at the position of Q6 or L20. b Representative MALDI-TOF-MS analyses of two-site mutagenesis at the positions of Q6 and L20. In (a) and (b), salivaricin B-1 based variants are the most abundant products in all analyses, which are indicated with the [M + H]^+ ions. c Quantification of salivaricin B mutants that are synthesized in UniBioCat reactions (see Supplementary Table 5 for the yield of each peptide variant). d Antimicrobial activity assay showing ΔOD600 profiles of S. aureus RN4220 growth treated with single-site (top) and two-site (bottom) mutants. […]
Two approaches were used for testing antimicrobial activity, including solid agar plate diffusion and liquid medium cultivation. […] The plates were incubated at 37 °C for 16 h, and the diameter of the zone of inhibition (DZI, in mm) was measured for comparison. […] For the samples of uncharacterized (Lan 1 - Lan 10) and three known (lacticin 481, ruminococcin A, and nukacin ISK-1) lanthipeptides, 80 μL of the cell-free reaction mixture was added directly to the liquid cultivation without quantification. […] During the cultivation, OD600 values were measured every 2 h and ΔOD600 was calculated to compare the antimicrobial activity of tested samples. […]

[5] = broth microdilution, 5 × 10^5 CFU mL^−1, purified peptides 0.12–16 μM twofold dilutions, lowest concentration inhibiting 90% of growth
[6] = from growth curves, GraphPad Prism, purified peptides 0.12–16 μM

Row | Compound | DZI, diameter of zone of inhibition [1] [mm] | Antimicrobial activity against Staphylococcus aureus RN4220 (in words) [1] | MIC, Bacillus subtilis (Bacillus subtilis; [5]) [µM] | IC50 (Bacillus subtilis; [6]) [nM] | MIC, Lactococcus lactis (Lactococcus lactis; [5]) [µM] | IC50 (Lactococcus lactis; [6]) [nM] | MIC, Micrococcus luteus (Micrococcus luteus; [5]) [µM] | IC50 (Micrococcus luteus; [6]) [nM] | IC50 (S. aureus RN4220 [2]) [nM] | IC50 [3] [nM] | Antimicrobial activity compared with salivaricin B, purified peptides (in words) (S. aureus RN4220 [4])
1 | NC[C@H]1O[C@H](O[C@H]2[C@H](O)[C@@H](O[C@H]3O[C@H](CO)[C@@H](O)[C@H](N)[C@H]3O)[C@H](N)C[C@@H]2N)[C@H](O)[C@@H](O)[C@@H]1O [Kan, kanamycin, reference compound] | 22 |  |  |  |  |  |  |  |  |  | 
2 | GGGVIQAbuIAlaHEAlaRMNAlaWQFLFDhbAlaAlaS (bicyclic or more) [Salivaricin B, salivaricin B, class II lanthipeptide naturally produced by Streptococcus salivarius K12; wild type, made cell-free or in vivo] | 7.5 | clear inhibitory effects on cell growth | 4 | 1880 ± 10 | 4 | 1670 ± 80 | 2 | 1190 ± 50 | > 8000 | 8640 | 
3 | AGGGVIQAbuIAlaHEAlaRMNAlaWQFLFDhbAlaAlaS (bicyclic or more) [Salivaricin B-1, salivaricin B-1, salivaricin B-like peptide with one additional amino acid alanine at the N-terminus] | 9.5 | clear inhibitory effects on cell growth |  |  |  |  |  |  |  |  | even higher antimicrobial activity than salivaricin B
